These are literature values, as cited in US8883786B2, “Glucocorticoid receptor antagonists” (Hoffmann-La Roche Inc., priority 2007, dated 2014).

Data set [1] deals with ob/ob mice. Particulars: leptin deficient ob/ob mice.
Data set [2] deals with Hypothalamus-Pituitary gland-Adrenal gland (HPA) axis. Particulars: HPA axis stimulation via feed-back mechanism.
The conditions of data set [3]: long term treatment (up to 1 year).
Data set [4] relates to gluconeogenic enzymes. Particulars: db/db mice.
For data set [5] the following is noted: clinical administration, chronic, Cushing's patients.
For data set [6] the following is noted: clinical administration, acute, normal volunteers.

Turning to `CC#C[C@]1(O)CC[C@H]2[C@@H]3CCC4=CC(=O)CCC4=C3[C@@H](c3ccc(N(C)C)cc3)C[C@@]21C` [RU486/mifepristone, mifepristone], the values for the fasting plasma glucose entry in data set [1] and in data set [6] were “normalizes fasting plasma glucose” and “decrease of fasting plasma glucose”, respectively. Also, the “endogenous corticosteroids circulating in the blood” value in data set [2] is reported as “increase of endogenous corticosteroids circulating in the blood”. Besides, the adrenal insufficiency symptoms entry in data set [3] was “induces some adrenal insufficiency symptoms”. Further, in data set [4], the “activity of gluconeogenic enzymes” value is reported as “normalizes”. In addition, the “plasmatic HbA1c” value in data set [5] was “decrease of plasmatic HbA1c”.
